How the values were obtained:
PDE10 from pig striatum = biological target: T1, PDE10 from pig striatum (Sus scrofa, UniProt A0A287B941); assay: Inhibition of PDE10 from pig striatum; assay type: biochemical; settings: 0.1 μM [3H]-cAMP, 37° C., 30 minutes
T1 construct: "Striatum from male hybrid pigs (150 kg)"
Protocol: Phosphodiesterase isoenzyme 10 (PDE10) activity was determined in preparations of human recombinant PDE10A and PDE10 from pig striatum, respectively.
Striatum from male hybrid pigs (150 kg) were collected and frozen at −70° C.
At the day of preparation 0.5 g striatum was homogenised in 10 ml 50 mM Tris/Mg-buffer at 4° C. and centrifuged for one hour at 100000 g.
Nonspecific activity was tested without the enzyme. […] For determination of IC50 values the Hill-plot, 2-parameter-model, was used.
Phosphodiesterase isoenzyme 10 (PDE10) activity was determined in preparations of rat, pig and guinea pig striatum respectively. Striatum from male Wistar rats (180-200 g), male hybrid pigs (150 kg) and male guinea pigs (CRL (HA), 500 g) respectively were collected and frozen at −70° C.
For the enzymatic testing of PDE10 activity 0.5 g of the isolated and frozen striatum was homogenised in 10 ml 50 mM Tris/Mg-buffer at 4° C. and centrifuged for one hour at 100000 g.

MK-801-induced psychosis = assay: MK-801-induced psychosis: hyperactivity and stereotyped sniffing; assay type: in vivo; settings: p.o.; female Wistar rats; MK-801 0.1 mg/kg i.p. 10 min before test; compound 30 min prior; recorded 1 h
Protocol: Female Wistar rats (Crl: (WI) BR, Charles River, Sulzfeld, Germany) weighing 150 to 180 g were used for the MK-801-induced psychosis. Animals were housed under standard conditions in groups of five on a 12 h light/dark cycle (light on at 0600 h) with ad libitum access to food (Pellets, ssniff M/R 15, Spezialdiät GmbH, Soest/Westfalen) and water.
MK-801 (dizocilpine, MW 337.37) was obtained by Tocris, distributed by Biotrend Chemikalien GmbH, Köln, Germany.
Hydroxyethylcellulose was solved in distilled water.
MK-801 was solved in saline so that an administration volume of 0.5 ml/100 g was reached. The suspensions and solution were placed on a magnetic stirrer before and during dosing procedures.
The behaviour induced by the NMDA antagonist MK-801 is generally accepted as a rat model of psychosis. MK-801 induces stereotyped sniffing, hyperactivity and ataxia in rats after intraperitoneal administration.
Locomotor activity of the rats was recorded by the MotiTest Apparatus (TSE, Bad Homburg, Germany). The test area consisted of a squared arena (45×45 cm) with protective plexiglass walls (20 cm of height) where rats could freely move. Horizontal movements were recorded by 32 infrared photocells arranged along the bottom of each wall of the arena. The activity [sec] was measured by the computer program “ActiMot” (TSE, Bad Homburg, Germany).
Stereotyped sniffing was scored by the experimenter every five minutes for one hour (12 intervals) according to the method described by Andine et al. (1999). The scores of the 12 intervals were summed up at the end of the recording time.
The day of experiment the female rats were placed in the laboratory and received the test compound or vehicle at the appropriate time prior to test. MK-801 0.1 mg/kg was intraperitoneally administered 10 minutes prior to test.
At the beginning of the test the rats were placed in the centre of the squared arena of the MotiTest apparatus. Behaviour of the rats was recorded for one hour. After each run animals were removed and the boxes thoroughly cleaned and dried.
Results were analysed by one way analysis of variance (ANOVA). Tukey test was used for individual comparison. P<0.05 was regarded as significant.

Molecule	IC50 (PDE10 from pig striatum) [nM]	melting point [°C]	also measured
1-cyclohexyl-3,4-dimethyl-8-methoxy-imidazo[1,5-a]pyrido[3,2-e]pyrazine [Example 44a]	3	–	–
1-hexyl-8-methoxy-3-methyl-4-methylsulfonylamino-imidazo[1,5-a]pyrido[3,2-e]pyrazine [Example 79a]	11	–	–
1-propyl-3,4-dimethyl-imidazo[1,5-a]pyrido[3,2-e]pyrazine [Example 52a]	53	–	–
3,4-dimethyl-1-hexyl-8-methoxy-imidazo[1,5-a]pyrido[3,2-e]pyrazine [Example 45a]	53	–	–
3,4-dimethyl-8-(piperidin-1-yl)-methoxy-1-propyl-imidazo[1,5-a]pyrido[3,2-e]pyrazine [Example 55a]	14	–	dose that significantly reversed MK-801-induced hyperactivity (MK-801-induced psychosis): 30 mg/kg; dose that significantly reversed MK-801-induced stereotyped sniffing (MK-801-induced psychosis): 30 mg/kg
3,4-dimethyl-8-methoxy-1-(2-chlorophenyl)-imidazo[1,5-a]pyrido[3,2-e]pyrazine [Example 49a]	1	–	–
3,4-dimethyl-8-methoxy-1-(3,3,3-trifluoropropyl)-imidazo[1,5-a]pyrido[3,2-e]pyrazine [Example 42a]	59	–	–
3,4-dimethyl-8-methoxy-1-pentyl-imidazo[1,5-a]pyrido[3,2-e]pyrazine [Example 43a]	35	–	–
3,4-dimethyl-8-methoxy-1-phenyl-imidazo[1,5-a]pyrido[3,2-e]pyrazine dihydrochloride [Example 48a]	7	–	–
3-methyl-4-methylsulfonylamino-1-propyl-imidazo[1,5-a]pyrido[3,2-e]pyrazin-8-ol [Example 86a]	23	–	–
4-amino-1-hexyl-8-methoxy-3-methyl-imidazo[1,5-a]pyrido[3,2-e]pyrazine [Example 7b]	48	–	–
4-amino-8-methoxy-3-methyl-1-phenethyl-imidazo[1,5-a]pyrido[3,2-e]pyrazine [Example 9b]	38	–	–
4-amino-8-methoxy-3-methyl-1-propyl-imidazo[1,5-a]pyrido[3,2-e]pyrazine [Example 1b]	–	–	dose that significantly reversed MK-801-induced hyperactivity (MK-801-induced psychosis): ≥ 10 mg/kg; dose that significantly reversed MK-801-induced stereotyped sniffing (MK-801-induced psychosis): ≥ 10 mg/kg
4-azido-8-methoxy-3-methyl-1-propyl-imidazo[1,5-a]pyrido[3,2-e]pyrazine [Example 31a]	171	–	–
4-chloro-8-difluoromethoxy-3-methyl-1-propyl-imidazo[1,5-a]pyrido[3,2-e]pyrazine [Intermediate A28]	8	–	–
4-difluoromethoxy-3-methyl-1-propyl-imidazo[1,5-a]pyrido[3,2-e]pyrazine-8-ol [Example 59a]	11	–	–
4-isopropylsulfonylamino-8-methoxy-3-methyl-1-propyl-imidazo[1,5-a]pyrido[3,2-e]pyrazine [Example 75a]	78	–	–
8-difluoromethoxy-3-methyl-4-methylsulfonylamino-1-propyl-imidazo[1,5-a]pyrido[3,2-e]pyrazine [Example 87a]	15	–	–
8-methoxy-3-methyl-1-phenethyl-4-methylsulfonylamino-imidazo[1,5-a]pyrido[3,2-e]pyrazine [Example 80a]	37	–	–
8-methoxy-3-methyl-4-(3-isopropyl-ureido)-1-propyl-imidazo[1,5-a]pyrido[3,2-e]pyrazine [Example 68a]	141	–	–
8-methoxy-4-(methoxycarbonyl-methyl-amino)-3-methyl-1-propyl-imidazo[1,5-a]pyrido[3,2-e]pyrazine [Example 65a]	559	–	–
CCCc1ncc2c(C)nc3ccc(OC)nc3n12 [Example 53a]	43	–	–
CCc1nc(C)c2n1-c1nc(OC)ccc1NC2 [Example 93a, 1-ethyl-8-methoxy-3-methyl-4,5-dihydro-imidazo[1,5-a]pyrido[3,2-e]pyrazine]	–	139 to 142	–
CCCCCc1nc(C)c2c(Cl)nc3ccc(OC)nc3n12 [Intermediate A6]	56	110.5 to 113	–
CCCc1nc(C)c2c(Cl)nc3ccc(C)nc3n12 [Intermediate A19]	9	99 to 101	–
CCc1nc(C)c2c(Cl)nc3ccc(N(CC)CC)nc3n12 [Intermediate A20]	11	145 to 150	–
CCc1nc(C)c2c(Cl)nc3ccc(N4CCN(C)CC4)nc3n12 [Intermediate A22]	52	283 to 285	–

Continued by falling IC50 (PDE10 from pig striatum), values first:

IC50 (PDE10 from pig striatum) [nM]	melting point [°C]	Molecule	also measured
752	–	8-methoxy-3-methyl-4-(3-methyl-ureido)-1-propyl-imidazo[1,5-a]pyrido[3,2-e]pyrazine [Example 66a]	–
128	162 to 164	COc1ccc2nc(Cl)c3cnc(C(C)C)n3c2n1 [Intermediate A14]	–
126	–	4-ethylsulfonylamino-8-methoxy-3-methyl-1-propyl-imidazo[1,5-a]pyrido[3,2-e]pyrazine [Example 71a]	–
83	–	8-methoxy-3-methyl-1-propyl-4-ureido-imidazo[1,5-a]pyrido[3,2-e]pyrazine [Example 67a]	–
71	115 to 117	CCCCCCc1nc(C)c2c(Cl)nc3ccc(OC)nc3n12 [Intermediate A5]	–
63	–	4-chloro-3-methyl-1-propyl-imidazo[1,5-a]pyrido[3,2-e]pyrazin-8-ol [Intermediate A25]	–
53	153 to 155	CCCc1ncc2c(Cl)nc3ccc(OC)nc3n12 [Intermediate A13]	–
46	> 360	CCc1nc(C)c2c(Br)nc3ccc(O)nc3n12 [Intermediate A26]	–
38	138 to 140	CCCc1nc(C)c2c(Cl)nc3cccnc3n12 [Intermediate A12]	–
34	149 to 153	COc1ccc2nc(Cl)c3c(C)nc(CCC(F)(F)F)n3c2n1 [Intermediate A7]	–
23	–	8-methoxy-3-methyl-5-oxo-1-propyl-imidazo[1,5-a]pyrido[3,2-e]pyrazine [Example 60a]	–
19	–	8-methoxy-3-methyl-1-propyl-4-trifluoromethylsulfonylamino-imidazo[1,5-a]pyrido[3,2-e]pyrazine [Example 73a]	–
18	–	8-difluoromethoxy-3,4-dimethyl-1-propyl-imidazo[1,5-a]pyrido[3,2-e]pyrazine [Example 54a]	–
11	73 to 75	CCc1nc(C)cn1-c1ccc2nc(C)c3c(C)nc(CC)n3c2n1 [Example 57a]	–
6	–	4-amino-1-(4-fluoro-phenyl)-8-methoxy-3-methyl-imidazo[1,5-a]pyrido[3,2-e]pyrazine [Example 12b]	–
5	–	CCCc1nc(C)c2c(Cl)nc3ccc(N4CCCCC4)nc3n12 [Intermediate A21]	–
4	240 to 242	COc1ccc2nc(Cl)c3c(C)nc(-c4ccccc4)n3c2n1 [Intermediate A9]	–
3	138 to 141	CCc1nc(C)cn1-c1ccc2nc(Cl)c3c(C)nc(CC)n3c2n1 [Intermediate A23]	–
2	211 to 213	COc1ccc2nc(Cl)c3c(C)nc(C4CCCCC4)n3c2n1 [Intermediate A4]	–
2	134 to 136	CCCc1nc(C)cn1-c1ccc2nc(Cl)c3c(C)nc(CCC)n3c2n1 [Intermediate A24]	–
1	215 to 221	CCCc1nc(C)cn1-c1ccc2nc(N)c3c(C)nc(CCC)n3c2n1 [Example 6b, 4-amino-3-methyl-1-propyll-8-(2-propyl-4-methyl-imidazol-1-yl)-imidazo[1,5-a]pyrido[3,2-e]pyrazine]	–

Reference: patent publication US20090143392A1, “Methods of Treating Obesity and Metabolic Disorders” (ELBION GMBH, priority 2007, published 2009)
